Laboratory results reported in patent publication US5587389A, “Substituted heteroarylaklylthiopyridines for controlling helicobacter bacteria” (BYK Gulden Lomberg Chemische Fabrik GmbH, priority 1993, dated 1996).

The compounds below were run on Helicobacter pylori (assay: activity against Helicobacter pylori (MIC), modified method of Iwahi et al., Columbia agar, growth period of 4 days). Conditions: Columbia agar (Oxoid).
Assay type: cell-based
Procedure: The compounds of the formula I were tested for their activity against Helicobacter pylori following a modification of the method described by Tomoyuki Iwahi et al. (Antimicrobial Agents and Chemotherapy, 1991, 490-496) using Columbia agar (Oxoid) over a growth period of 4 days. The MIC values listed in Table 2 below were found here for the tested compounds (the compound numbers shown agree with the compound numbers in the description).

SMILES	MIC Value
Cc1c(SCCc2ccccn2)ccnc1CSc1nc2ccccc2[nH]1 [Compound 17]	≤ 1.0 µg/mL

Same assay, conditions: Helicobacter pylori, 96 h, Columbia agar (Oxoid)

SMILES	MIC
Cc1c(SCc2ccco2)ccnc1CSc1nc2ccccc2[nH]1 [Compound 1, 2-{[[4-(2-Furylmethylthio)-3-methyl,2-pyridinyl]methyl]thio}-1H-benzimidazole]	≤ 1 µg/mL
COc1c(SCc2ccco2)ccnc1CSc1nc2ccccc2[nH]1 [Compound 2, 2-{[[4-(2-Furylmethylthio)-3-methoxy-2-pyridinyl]methyl]thio}-1H-benzimidazole]	≤ 1 µg/mL
Cc1c(SCc2cccs2)ccnc1CSc1nc2ccccc2[nH]1 [Compound 5, 2-{[[3-Methyl-4-(2-thienylmethylthio)-2-pyridinyl]methyl]thio}-1H-benzimidazole]	≤ 1 µg/mL
Cc1c(SCc2ccsc2)ccnc1CSc1nc2ccccc2[nH]1 [Compound 6, 2-{[[3-Methyl-4-(3-thienylmethylthio)-2-pyridinyl]methyl]thio}-1H-benzimidazole]	≤ 1 µg/mL
c1csc(CSc2ccnc(CSc3nc4ccccc4[nH]3)c2)c1 [Compound 8, 2-{[[4-(2-Thienylmethylthio)-2,pyridinyl]methyl]thio}-1H-benzimidazole]	≤ 1 µg/mL
Cc1c(SCc2ccco2)ccnc1CSc1nc2ccccc2[nH]1.Cl.Cl [Compound 12, 2-{[[4-(2-Furylmethylthio)-3-methyl-2-pyridinyl]methyl]thio}-1H-benzimidazole dihydrochloride]	≤ 1 µg/mL
COc1ccnc(CSc2ccnc(CSc3nc4ccccc4[nH]3)c2C)c1OC [Compound 16, 2-{[[4-3,4-Dimethoxy-2-pyridinylmethylthiol-3-methyl-2-pyridinyl]methyl]thio}-1H-benzimidazole]	≤ 1 µg/mL
Cc1c(SCCCn2ccnc2)ccnc1CSc1nc2ccccc2[nH]1 [Compound 18, 2-{[[-4-[3-(Imidazol-1-yl)propylthio]-3-methyl-2-pyridinyl]methyl]thio}-1H-benzimidazole]	≤ 1 µg/mL
Cc1c(SCCCn2ccnc2C)ccnc1CSc1nc2ccccc2[nH]1 [Compound 19, 2-{[[4-[3-(2-Methylimidazol-1-yl)propylthio]-3-methyl-2-pyridinyl]methyl]thio}-1H-benzimidazole]	≤ 1 µg/mL
Cc1c(SCc2ccco2)ccnc1C[S+]([O-])c1nc2ccccc2[nH]1 (centres unmarked) [Compound 20, 2-{[[4-(2-Furylmethylthio)-3-methyl-2-pyridinyl]methyl]sulfinyl}-1H-benzimidazole]	≤ 1 µg/mL
